# Experimental data: patent publication US9040542B2, “Solid forms of gyrase inhibitor (R)-1-ethyl-3-[6-fluoro-5-[2-(1-hydroxy-1-methyl-ethyl)pryimidin-5-yl]-7-(tetrahydrofuran-2-yl)-1H-benzimidazol-2-yl]urea” (priority 2011, dated 2015)
# Several values for one entry are separate records, joined by “and”; a condition that tells them apart may be missing. Equal values may be shown once.
# Tests used:
# [1] = Stability data of solid forms on storage; assay type: physicochemical
# [2] = system: Staphylococcus aureus ATCC 29213; test: MIC, Protocol #1 microdilution broth; assay type: cell-based
# [3] = system: Enterococcus faecium ATCC 49624; test: MIC, Protocol #1 microdilution broth; assay type: cell-based
# [4] = system: Streptococcus pneumoniae ATCC 10015; test: MIC, Protocol #1 microdilution broth; assay type: cell-based; conditions: Streptococcus pneumoniae ATCC 10015, with Laked Horse Blood
# [5] = system: Bacillus cereus ATCC 14579; test: MIC, Protocol #1 microdilution broth; assay type: cell-based
# [6] = system: Bacillus subtilis ATCC 6638; test: MIC, Protocol #1 microdilution broth; assay type: cell-based
# [7] = system: Neisseria gonorrhoeae ATCC 35541; test: MIC, Protocol #3 agar dilution; assay type: cell-based
# [8] = system: Neisseria gonorrhoeae ATCC 49226; test: MIC, Protocol #3 agar dilution; assay type: cell-based
# Escherichia coli CHE30 = test: MIC, Protocol 2 microdilution broth, Gram negatives; assay type: cell-based
# Excerpt: (§1) The specific protocols used were as follows:
# (§2) Drug dilutions, inoculation, MIC determination: • 1.
# [9] = system: Pseudomonas aeruginosa PAO750; test: as above; assay type: cell-based
# Excerpt: as §1, §2
# Mycobacterium avium 103 = test: MIC, Protocol #4 Mycobacterium species; assay type: cell-based
# M. avium Far = test: MIC, Protocol #4 Mycobacterium species; assay type: cell-based
# Nocardia caviae 2497 = test: MIC, Protocol #4 Mycobacterium species; assay type: cell-based
# Method: Protocol #4. MIC Determination Procedure for Mycobacterium Species
# Inoculum Preparation for M. kansasii, M. avium, M. abscessus and Nocardia spc.: • 1. Used prepared frozen stock of culture or a fresh culture grown in 7H10 broth at a concentration of 10 Klett or 5×10^7/ml. • 2. Prepared a 1:20 dilution by removing 1.0 ml of the culture stock and added it to 19 ml of 7H10 broth (final concentration 2.5×10^6 cfu/ml). • 3. From this dilution prepared a 1:20 dilution, removed 1 ml and added it to 19 ml of fresh broth (final suspension).
# Plate Preparation: • 1. Labeled plates. • 2. Added 50 μl of 7H10 broth +10% OADC to all wells being utilized for MIC determination using a multichannel electronic pipettor. • 3. Prepared stock solutions of drugs (e.g. 1 mg/ml concentration) to be tested. • 4. Thawed and diluted frozen stock solutions using 7H10 broth +10% OADC to obtain a working solution 4× the maximum concentration tested (e.g. final concentration 32 μg/ml, highest concentration tested was 8 μg/ml). Dilutions were made from the stock solution. To start at a concentration of 1 μg/ml, the drugs were prepared at 4 μg/ml, so the starting concentration was 1 μg/ml. Removed 25 μl of the 1 mg/ml stock and added to 6.2 ml of broth. All dilutions of drugs were done in broth. • 5. Added 50 μl of the 4× working solution to the first well of the designated row. […] Read visually and recorded the results.
# N. nova 10 = test: MIC, Protocol #4 Mycobacterium species; assay type: cell-based
# M. kansasii 316 = test: MIC, Protocol #4 Mycobacterium species; assay type: cell-based
# [10] = system: M. tuberculosis H37Rv ATCC 25618; test: MIC, Protocol #4 Mycobacterium species; assay type: cell-based
# [11] = system: M. tuberculosis Erdman ATCC 35801; test: Protocol #5 Mycobacterium tuberculosis Serum Shift MIC Assay; assay type: cell-based
# M. abscessus MC 6005 = test: MIC, Protocol #4 Mycobacterium species; assay type: cell-based
# M. abscessus MC 5908 = test: MIC, Protocol #4 Mycobacterium species; assay type: cell-based; conditions: in µg/mL
# M. abscessus BB5 = test: MIC, Protocol #4 Mycobacterium species; assay type: cell-based
# M. abscessus MC 5960 = test: MIC, Protocol #4 Mycobacterium species; assay type: cell-based
# M. abscessus MC 5812 = test: MIC, Protocol #4 Mycobacterium species; assay type: cell-based
# M. abscessus MC 5901 = test: MIC, Protocol #4 Mycobacterium species; assay type: cell-based
# M. abscessus MC 6136 = test: MIC, Protocol #4 Mycobacterium species; assay type: cell-based
# Staphylococcus aureus = test: MIC90 panel, Protocol #1 microdilution broth; assay type: cell-based; conditions: 67 isolates
# [12] = system: Staphlococcus epidermidis; test: MIC90 panel, Protocol #1 microdilution broth; assay type: cell-based, Staphylococcus epidermidis; conditions: 35 isolates
# Enterococcus faecalis = test: MIC90 panel, Protocol #1 microdilution broth; assay type: cell-based; conditions: 34 isolates
# Streptococcus pneumoniae = test: MIC90 panel, Protocol #1 microdilution broth; assay type: cell-based; conditions: 67 isolates
# [13] = system: β-haemolytic streptococci (Groups A, B, C and G); test: MIC90 panel, Protocol #1 microdilution broth; assay type: cell-based; conditions: 28 isolates
# Neisseria meningitidis = test: MIC90 panel, Protocol #3 agar dilution; assay type: cell-based; conditions: 12 isolates
# Peptostreptococcus spp. = test: MIC90 panel, Protocol #3 agar dilution; assay type: cell-based; conditions: 11 isolates
# [14] = system: Moraxella catarrhalis ATCC 25238; test: MIC, Protocol 2 microdilution broth, Gram negatives; design: unit not given beside the values
# [15] = system: Moraxella catarrhalis ATCC 49143; test: as above; design: unit not given beside the values
smiles,measurement,setting,value
"CCNC(=O)Nc1nc2cc(-c3cnc(C(C)(C)O)nc3)c(F)c([C@H]3CCCO3)c2[nH]1 [Compound 24, 1-ethyl-3-[6-fluoro-5-[2-(1-hydroxy-1-methyl-ethyl)pyrimidin-5-yl]-7-[(2R)-tetrahydrofuran-2-yl]-1H-benzimidazol-2-yl]urea]",chemical and physical stability,"[1]; 25° C./60% RH, one week time point",chemically and physically unstable
same,chemical stability,"[1]; 40° C./ambient, t=2 weeks",chemically unstable
same,MIC,[2]; Staphylococcus aureus ATCC 29213,0.021 µg/mL
same,MIC,[2]; Staphylococcus aureus ATCC 29213 with Human Serum,0.15 µg/mL
same,MIC,[2]; Staphylococcus aureus ATCC 29213 with Mouse Serum,0.5 µg/mL
same,MIC,[2]; Staphylococcus aureus ATCC 29213 with Rat Serum,0.18 µg/mL
same,MIC,[3]; Enterococcus faecium ATCC 49624,0.11 µg/mL
same,MIC,[3]; Enterococcus faecium ATCC 49624 with Laked Horse Blood,0.11 µg/mL
same,MIC,[4],0.01 µg/mL
same,MIC,[5],0.031 µg/mL
same,MIC,[6],2 µg/mL
same,MIC,[7],0.42 µg/mL
same,MIC,[8],1 µg/mL
same,MIC,Escherichia coli CHE30,8 µg/mL
same,MIC,[9],0.25 µg/mL
same,MIC,Mycobacterium avium 103,0.18 µg/mL
same,MIC,M. avium Far,0.23 µg/mL
same,MIC,Nocardia caviae 2497,0.125 µg/mL
same,MIC,N. nova 10,1 µg/mL
same,MIC,M. kansasii 316,0.06 µg/mL
same,MIC,[10],0.015 µg/mL
same,MIC,[11]; M. tuberculosis Erdman ATCC 35801,0.03 µg/mL
same,MIC,[11]; M. tuberculosis Erdman ATCC 35801 with Mouse Serum,0.5 µg/mL
same,MIC,M. abscessus MC 6005,1 µg/mL
same,MIC,M. abscessus MC 5908,1 and 1.5
same,MIC,M. abscessus BB5,0.5 µg/mL
same,MIC,M. abscessus MC 5960,0.5 µg/mL
same,MIC,M. abscessus MC 5812,1 µg/mL
same,MIC,M. abscessus MC 5901,1 µg/mL
same,MIC,M. abscessus MC 6136,0.5 µg/mL
same,MIC90,Staphylococcus aureus,0.03 µg/mL
same,MIC Range,Staphylococcus aureus,0.008 to 0.06 µg/mL
same,MIC Range,[12],0.008 to 0.03 µg/mL
same,MIC90,[12]; Staphylococcus epidermidis,0.03 µg/mL
same,MIC90,Enterococcus faecalis,0.06 µg/mL
same,MIC Range,Enterococcus faecalis,0.015 to 0.12 µg/mL
same,MIC90,Streptococcus pneumoniae,0.015 µg/mL
same,MIC Range,Streptococcus pneumoniae,0.008 to 0.03 µg/mL
same,MIC90,[13],0.12 µg/mL
same,MIC Range,[13],0.015 to 0.12 µg/mL
same,MIC90,Neisseria meningitidis,0.03 µg/mL
same,MIC Range,Neisseria meningitidis,0.008 to 0.06 µg/mL
same,MIC90,Peptostreptococcus spp.,> 16 µg/mL
same,MIC,[14],≦0.016
same,MIC,[15],≦0.016
